Test results published in patent US20250214991A1 (Oncopia Therapeutics, Inc. d/b/a/ SK Life Science Labs, priority 2022, published 2025).

What was measured:
CRBN/DDB1 = CRBN/DDB1 (Homo sapiens (Human), UniProt Q96SW2); assay: IC50 measurements for binding to CRBN/DDB1 (HTRF); settings: His tagged CRBN+DDB, Cy5-labeled Thalidomide probe, one hour
Summary of the method: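 HTRF competition binding with 2 nM His-tagged CRBN-DDB1 complex, 60 nM Cy5-thalidomide probe and 0.4 nM anti-His Tb cryptate in 50 mM HEPES pH 7.5, 1 mM TCEP, 0.01% Brij-35, 50 mM NaCl, 0.1% BSA. Read after 1 h at room temperature; IC50 from four-parameter dose-response fit.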

IKZF2 = IKZF2 (Homo sapiens (Human), UniProt Q96SW2+Q9UKS7); assay: In vitro IKZF2 HiBit Assay (HEK293T Flp-in-HiBiT cells); format: cell-based; settings: HEK293T Flp-in-HiBiT cells, 6 hrs incubation; for DC50: read-out: IKZF2 HiBit DC50; for Dmax: HEK-293T, read-out: IKZF2 HiBit Dmax (%)
IKZF2, sequence (Q9UKS7 whole entry): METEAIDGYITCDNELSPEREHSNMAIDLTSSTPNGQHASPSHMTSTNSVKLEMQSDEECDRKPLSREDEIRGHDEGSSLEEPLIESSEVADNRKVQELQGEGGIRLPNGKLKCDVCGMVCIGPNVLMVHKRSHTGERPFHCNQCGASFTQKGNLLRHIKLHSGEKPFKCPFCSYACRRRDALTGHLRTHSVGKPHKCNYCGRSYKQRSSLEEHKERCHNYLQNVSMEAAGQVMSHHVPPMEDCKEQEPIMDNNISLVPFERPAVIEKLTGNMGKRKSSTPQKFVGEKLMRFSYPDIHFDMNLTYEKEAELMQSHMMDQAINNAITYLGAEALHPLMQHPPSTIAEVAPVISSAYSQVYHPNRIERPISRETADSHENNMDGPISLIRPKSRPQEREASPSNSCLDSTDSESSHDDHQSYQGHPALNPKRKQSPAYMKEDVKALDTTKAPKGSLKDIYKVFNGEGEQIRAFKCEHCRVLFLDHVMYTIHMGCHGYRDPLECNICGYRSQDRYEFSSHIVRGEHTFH
IKZF2, sequence (Q96SW2 whole entry): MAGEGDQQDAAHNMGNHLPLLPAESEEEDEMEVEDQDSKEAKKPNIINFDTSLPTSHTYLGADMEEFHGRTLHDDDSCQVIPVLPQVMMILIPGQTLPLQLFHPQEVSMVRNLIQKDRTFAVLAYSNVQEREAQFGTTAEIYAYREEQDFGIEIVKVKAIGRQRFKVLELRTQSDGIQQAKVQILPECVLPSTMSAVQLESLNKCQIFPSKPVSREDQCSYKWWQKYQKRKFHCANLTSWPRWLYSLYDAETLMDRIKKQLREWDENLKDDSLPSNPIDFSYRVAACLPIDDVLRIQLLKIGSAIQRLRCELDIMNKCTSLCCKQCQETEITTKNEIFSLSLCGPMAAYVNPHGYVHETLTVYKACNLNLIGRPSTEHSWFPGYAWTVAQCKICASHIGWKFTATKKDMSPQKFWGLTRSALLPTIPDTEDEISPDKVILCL
IKZF2, sequence (Q16531 2-1140 partner): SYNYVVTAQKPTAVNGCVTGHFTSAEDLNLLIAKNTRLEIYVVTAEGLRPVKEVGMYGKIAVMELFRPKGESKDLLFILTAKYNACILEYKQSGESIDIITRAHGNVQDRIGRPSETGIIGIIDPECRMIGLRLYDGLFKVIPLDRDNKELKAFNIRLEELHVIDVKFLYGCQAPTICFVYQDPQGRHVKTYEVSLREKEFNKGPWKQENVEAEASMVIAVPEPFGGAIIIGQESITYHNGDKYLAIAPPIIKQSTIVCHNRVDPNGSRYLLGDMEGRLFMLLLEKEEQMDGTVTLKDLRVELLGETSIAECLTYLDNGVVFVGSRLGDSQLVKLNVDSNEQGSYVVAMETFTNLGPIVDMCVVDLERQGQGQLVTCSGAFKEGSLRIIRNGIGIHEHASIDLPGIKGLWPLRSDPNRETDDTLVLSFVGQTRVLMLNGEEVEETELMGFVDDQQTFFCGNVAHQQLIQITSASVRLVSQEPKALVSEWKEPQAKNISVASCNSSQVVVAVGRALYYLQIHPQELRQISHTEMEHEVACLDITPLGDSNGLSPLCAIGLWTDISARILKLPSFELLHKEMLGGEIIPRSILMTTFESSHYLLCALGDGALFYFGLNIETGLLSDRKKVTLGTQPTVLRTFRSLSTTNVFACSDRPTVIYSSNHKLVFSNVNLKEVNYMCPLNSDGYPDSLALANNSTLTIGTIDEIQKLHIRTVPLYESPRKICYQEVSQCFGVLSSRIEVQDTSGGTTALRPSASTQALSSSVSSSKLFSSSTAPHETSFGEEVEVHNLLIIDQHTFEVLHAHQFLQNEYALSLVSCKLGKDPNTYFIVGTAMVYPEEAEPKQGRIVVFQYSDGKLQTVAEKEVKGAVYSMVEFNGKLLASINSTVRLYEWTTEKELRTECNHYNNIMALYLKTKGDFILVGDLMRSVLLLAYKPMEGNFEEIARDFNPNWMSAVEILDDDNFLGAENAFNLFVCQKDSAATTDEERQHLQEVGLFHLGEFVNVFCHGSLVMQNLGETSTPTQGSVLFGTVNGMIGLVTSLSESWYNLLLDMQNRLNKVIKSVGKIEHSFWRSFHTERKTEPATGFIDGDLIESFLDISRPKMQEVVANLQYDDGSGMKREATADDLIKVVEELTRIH
Summary of the method: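 HEK293T Flp-in cells carrying an endogenous N-terminal HiBiT tag on IKZF2 were exposed to compound for 6 h at 0.1% DMSO. The dilution series was 11 doses at 3-fold, diluted from 1 mM. Nano-Glo HiBiT lytic luminescence, normalized to DMSO, gave DC50 for 50% degradation and Dmax across the concentration range, both reported in letter bins.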

IKZF1 = IKZF1 (Homo sapiens (Human), UniProt Q13422+Q96SW2); assay: In vitro IKZF1 HiBit Assay (HEK293T Flp-in-HiBiT-IKZF1 stable cell line); format: cell-based; settings: HEK293T Flp-in-HiBiT-IKZF1 stable cell line, 6 hrs incubation; for DC50: read-out: IKZF1 HiBit DC50; for Dmax: HEK-293T, read-out: IKZF1 HiBit Dmax (%)
IKZF1, sequence (Q13422 whole entry): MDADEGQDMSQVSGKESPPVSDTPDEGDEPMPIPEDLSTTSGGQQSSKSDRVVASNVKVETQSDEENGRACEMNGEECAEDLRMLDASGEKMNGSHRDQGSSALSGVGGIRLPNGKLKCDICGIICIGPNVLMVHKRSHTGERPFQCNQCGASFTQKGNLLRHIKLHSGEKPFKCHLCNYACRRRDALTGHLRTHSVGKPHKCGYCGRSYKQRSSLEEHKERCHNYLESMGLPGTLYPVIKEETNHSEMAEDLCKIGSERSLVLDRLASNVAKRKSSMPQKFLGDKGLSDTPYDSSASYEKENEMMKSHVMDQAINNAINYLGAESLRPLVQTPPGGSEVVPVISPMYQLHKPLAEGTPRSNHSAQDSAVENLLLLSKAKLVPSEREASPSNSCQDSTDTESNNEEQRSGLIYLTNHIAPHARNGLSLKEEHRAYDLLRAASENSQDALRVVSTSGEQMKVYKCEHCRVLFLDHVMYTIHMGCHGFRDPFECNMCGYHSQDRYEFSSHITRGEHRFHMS
IKZF1, sequence (Q96SW2 whole entry): as the sequence (Q96SW2 whole entry) above
IKZF1, sequence (Q16531 2-1140 partner): as the sequence (Q16531 2-1140 partner) above
Summary of the method: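 HEK293T Flp-in cells carrying N-terminal HiBiT-tagged IKZF1 were exposed to compound (0.1% DMSO) for 6 h at 3000 cells/well. HiBiT luminescence was read after lytic LgBiT detection. DC50 and Dmax were taken from DMSO-normalized dose-response curves.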

CRBN/DDB1, sequence (Q96SW2 whole entry, species assumed): as the sequence (Q96SW2 whole entry) above
CRBN/DDB1, sequence (Q16531 whole entry partner, species assumed): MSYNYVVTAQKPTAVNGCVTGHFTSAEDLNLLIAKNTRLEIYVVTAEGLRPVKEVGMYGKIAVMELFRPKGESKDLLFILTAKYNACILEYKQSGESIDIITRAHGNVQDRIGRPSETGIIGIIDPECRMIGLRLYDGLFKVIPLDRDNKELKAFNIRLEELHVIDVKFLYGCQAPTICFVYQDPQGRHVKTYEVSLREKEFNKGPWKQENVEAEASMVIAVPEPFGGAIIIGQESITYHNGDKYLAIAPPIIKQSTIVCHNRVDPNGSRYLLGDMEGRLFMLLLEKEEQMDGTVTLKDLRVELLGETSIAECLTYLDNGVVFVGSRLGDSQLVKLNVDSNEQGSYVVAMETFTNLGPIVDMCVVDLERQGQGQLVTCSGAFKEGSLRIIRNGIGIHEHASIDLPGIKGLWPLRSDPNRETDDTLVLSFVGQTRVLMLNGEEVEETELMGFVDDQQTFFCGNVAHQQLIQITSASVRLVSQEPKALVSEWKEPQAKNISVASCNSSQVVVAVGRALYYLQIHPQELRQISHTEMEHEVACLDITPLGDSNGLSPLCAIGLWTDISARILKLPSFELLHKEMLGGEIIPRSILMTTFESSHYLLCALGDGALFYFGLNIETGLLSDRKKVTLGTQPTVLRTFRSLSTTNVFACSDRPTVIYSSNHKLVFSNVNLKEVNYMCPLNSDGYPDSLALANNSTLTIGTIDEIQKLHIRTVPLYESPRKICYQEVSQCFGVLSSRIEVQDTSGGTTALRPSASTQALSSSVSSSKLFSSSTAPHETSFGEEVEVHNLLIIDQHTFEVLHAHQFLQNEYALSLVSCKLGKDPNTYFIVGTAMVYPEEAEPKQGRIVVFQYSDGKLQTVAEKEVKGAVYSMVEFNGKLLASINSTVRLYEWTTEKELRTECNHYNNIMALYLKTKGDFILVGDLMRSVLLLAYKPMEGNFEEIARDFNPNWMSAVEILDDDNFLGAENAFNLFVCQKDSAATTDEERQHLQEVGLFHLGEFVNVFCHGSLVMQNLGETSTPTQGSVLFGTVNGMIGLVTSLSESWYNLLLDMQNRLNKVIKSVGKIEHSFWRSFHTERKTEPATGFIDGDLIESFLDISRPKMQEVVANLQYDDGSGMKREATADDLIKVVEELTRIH

SMILES	IC50 (CRBN/DDB1)	DC50 (IKZF2)	Dmax (IKZF2)	DC50 (IKZF1)	Dmax (IKZF1)
Cn1ccc2c(CN3CCC(n4ccnc4)CC3)cc(-c3ccc4c(c3)CN(C3CCC(=O)NC3=O)C4=O)nc21 (centres unmarked) [Example 115, 3-(5-(4-((4-(1HIimidazol-1-yl)piperidin-1-yl)methyl)-1-methyl-1H-pyrrolo[2,3-b]pyridin-6-yl)-1-oxoisoindolin-2-yl) piperidine-2,6-dione]	500 to 1000 nM	10 to 100 nM	60 to 80%	> 10000 nM	< 20%
COCCn1ccc2c(CN3CCCC3)cc(-c3ccc4c(c3)CN(C3CCC(=O)NC3=O)C4=O)nc21 (centres unmarked) [Example 118, 3-(5-(1-(2-methoxyethyl)-4-(pyrrolidin-1-ylmethyl)-1H-pyrrolo[2,3-b]pyridin-6-yl)-1-oxoisoindolin-2-yl) piperidine-2,6-dione]	500 to 1000 nM	1 to 10 nM	40 to 60%	> 10000 nM	< 20%
O=C1CCC(N2Cc3cc(-c4cc(CN5CCC(O)C5)c5cc[nH]c5n4)ccc3C2=O)C(=O)N1 (centres unmarked) [Example 120, 3-(5-(4-((3-hydroxypyrrolidin-1-yl)methyl)-1H-pyrrolo[2,3-b]pyridin-6-yl)-1-oxoisoindolin-2-yl) piperidine-2,6-dione]	100 to 500 nM	10 to 100 nM	> 80%	100 to 1000 nM	20 to 40%
O=C1CCC(N2Cc3cc(-c4cc(CN5CCCC5)c5cc[nH]c5n4)c(F)cc3C2=O)C(=O)N1 (centres unmarked) [Example 122, 3-(6-fluoro-1-oxo-5-(4-(pyrrolidin-1-ylmethyl)-1H-pyrrolo[2,3-b]pyridin-6-yl)isoindolin-2-yl) piperidine-2,6-dione]	1000 to 5000 nM	100 to 1000 nM	20 to 40%	1 to 10 nM	20 to 40%
CN(C)CC1CCN(Cc2cc(-c3ccc4c(c3)CN(C3CCC(=O)NC3=O)C4=O)nc3[nH]ccc23)C1 (centres unmarked) [Example 123]	100 to 500 nM	1 to 10 nM	> 80%	10 to 100 nM	20 to 40%
CCn1ccc2nc(-c3ccc4c(c3)CN(C3CCC(=O)NC3=O)C4=O)cc(CN3CCC3)c21 (centres unmarked) [Example 124, 3-(5-(7-(azetidin-1-ylmethyl)-1-ethyl-1H-pyrrolo[3,2-b]pyridin-5-yl)-1-oxoisoindolin-2-yl) piperidine-2,6-dione]	1000 to 5000 nM	1 to 10 nM	> 80%	10 to 100 nM	20 to 40%
O=C1CCC(N2Cc3cc(-c4cc(CN5CCC(O)CC5)c5cc[nH]c5n4)ccc3C2=O)C(=O)N1 (centres unmarked) [Example 125, 3-(5-(4-((4-hydroxypiperidin-1-yl)methyl)-1H-pyrrolo[2,3-b]pyridin-6-yl)-1-oxoisoindolin-2-yl) piperidine-2,6-dione]	100 to 500 nM	10 to 100 nM	> 80%	100 to 1000 nM	20 to 40%
O=C1CCC(N2Cc3c(ccc(-c4cc(CN5CCCC5)c5cc[nH]c5n4)c3F)C2=O)C(=O)N1 (centres unmarked) [Example 126, 3-(4-fluoro-1-oxo-5-(4-(pyrrolidin-1-ylmethyl)-1H-pyrrolo[2,3-b]pyridin-6-yl)isoindolin-2-yl) piperidine-2,6-dione]	100 to 500 nM	< 1 nM	> 80%	1 to 10 nM	40 to 60%
O=C1CCC(N2Cc3cc(-c4cc(CN5CCC(F)C5)c5cc[nH]c5n4)ccc3C2=O)C(=O)N1 (centres unmarked) [Example 127, 3-(5-(4-((3-fluoropyrrolidin-1-yl)methyl)-1H-pyrrolo[2,3-b]pyridin-6-yl)-1-oxoisoindolin-2-yl) piperidine-2,6-dione]	100 to 500 nM	1 to 10 nM	> 80%	100 to 1000 nM	20 to 40%
O=C1CCC(N2Cc3cc(-c4cc(CN5CCCC5)c5ccn(CCOCc6ccccc6)c5n4)ccc3C2=O)C(=O)N1 (centres unmarked) [Example 130, 3-(5-(1-(2-(benzyloxy)ethyl)-4-(pyrrolidin-1-ylmethyl)-1H-pyrrolo[2,3-b]pyridin-6-yl)-1-oxoisoindolin-2-yl) piperidine-2,6-dione]	100 to 500 nM	1 to 10 nM	40 to 60%	> 10000 nM	< 20%
